Measurements published in patent US4562176A, “Method and composition for treating cancer” (priority 1985, dated 1985).

What was measured:
[1] = tested on: human lymphoblastic leukemia cells (CCRF-CEM); assay: In vitro growth inhibition of CCRF-CEM cells; assay type: cell-based; settings: for In Vitro (CCRF-CEM) ID50: cells in log-phase growth, suspension culture, final growth medium 5% Me2SO
Description: ^b Human lymphoblastic luekemia cells in logphase growth and in a
suspension culture. Compounds were dissolved in Me2 SO medium, final
growth medium contained 5% Me2 SO.
In vitro growth inhibition of the analogues were assayed against human lymphoblastic leukemia cells (CCRF-CEM) in log phase. The most cyctoxic are AMD-OZN analogues 2b and 2g and AMD-OZL analogues 4a-4c. However, compared to AMD, they are several fold less cytotoxic to CEM-cells in vitro.

[2] = tested on: P388 lymphocytic leukemia; assay: In vivo P388 assay; design: species or system mice; settings: at optimum dose, ip days 1,5,9; for % ILS (percent increase in life span) / MST (median survival time): CDF1 male mice; for MST (median survival time): control MST 11.0 days; for Cure (over 60 day survivors): group of 7 CDF1 male mice, average of 2 experiments
Description: ^c 10^6 P388 cells implanted intraperitoneally on day 0 into a
group of 7 CDF1 male mice. Drugs were administered, also ip, in 10%
Me2 SO--saline on days 1,5,9. Test solutions were kept at 0-4.degree
C., protected from light.
These analogues were tested for antitumor activity against P388 lymphocytic leukemia in male CDF1 hybrid mice (Table 6). The tumor was implanted intraperitoneally (ip) with 10^6 cells. The drugs were administered once daily on days 1, 5, 9 beginning 1 day after implantation.

DNA = assay: DNA-drug binding by difference spectral (absorption and CD) techniques; settings: difference spectral or ΔTm techniques
From the text: ^b Diff. Absorption Spectra is the calculated absorption spectra
obtained by subtracting the spectrum of the DNAbound analogue from the
spectrum of the free analogue, measured at 340-600 nm.
^c Diff. CD Spectra is the calculated CD Spectra obtained as the
difference of the DNAbound from the combined individual spectra of
analogues and DNA at 340-600 nm.
Medium: 0.01 M phosphate containing 10^-4 EDTA, buffer pH 7.0.
DNA-DRUG BINDING BY DIFFERENCE SPECTRAL AND THERMAL DEVATURATION OF DNA (ΔTm) TECHNIQUES
These experiments were performed according to the methods described by Sengupta et al., Cancer Chemother. Rep., 1974, 58, p. 35, Sengupta et al, J. Med. Chem., 1981, 24, p. 1052 and Sengupta et al, 1983, 26, p. 448, Sengupta et al, 1978, Biochem. Biophys Acta, 521, p. 89.

Row | SMILES | In Vitro (CCRF-CEM) ID50 [1] [µg/mL] | % ILS (percent increase in life span) [2] [%] | MST (median survival time) [2] [days] | Cure (over 60 day survivors) [2] | cytotoxicity to CEM cells (in words) ([1]; CCRF-CEM in log phase) | DNA binding (in words) (DNA)
1 | Cc1ccc(C(=O)N[C@@H]2C(=O)N[C@H](C(C)C)C(=O)N3CCC[C@H]3C(=O)N(C)CC(=O)N(C)[C@@H](C(C)C)C(=O)O[C@@H]2C)c2c1Oc1c(c(C(=O)N[C@@H]3C(=O)N[C@H](C(C)C)C(=O)N4CCC[C@H]4C(=O)N(C)CC(=O)N(C)[C@@H](C(C)C)C(=O)O[C@@H]3C)c3nc(-c4ccc(Cl)cc4)c(=O)oc3c1C)N2 [Compound 2e] | 1.6 | 164 | 29 | 0/7 |  | 
2 | Cc1ccc(C(=O)N[C@@H]2C(=O)N[C@H](C(C)C)C(=O)N3CCC[C@H]3C(=O)N(C)CC(=O)N(C)[C@@H](C(C)C)C(=O)O[C@@H]2C)c2c1Oc1c(c(C(=O)N[C@@H]3C(=O)N[C@H](C(C)C)C(=O)N4CCC[C@H]4C(=O)N(C)CC(=O)N(C)[C@@H](C(C)C)C(=O)O[C@@H]3C)c3nc(-c4ccccc4)oc3c1C)N2 [Compound 3b, 2-PHENYL-9,11-DIMETHYL-5H-OXAZOLO[4,5-b]PHENOXAZINE 4,6-BIS[CARBONYL-L-THREONYL-D-VALYL-L-PROLYLSARCOSYL-L-N-METHYL-VALINE-(TH REONINE HYDROXYL)] LACTONE] | 9 | 109 | 23 | 0/7 |  | 
3 | Cc1ccc(C(=O)N[C@@H]2C(=O)N[C@H](C(C)C)C(=O)N3CCC[C@H]3C(=O)N(C)CC(=O)N(C)[C@@H](C(C)C)C(=O)O[C@@H]2C)c2c1Oc1c(c(C(=O)N[C@@H]3C(=O)N[C@H](C(C)C)C(=O)N4CCC[C@H]4C(=O)N(C)CC(=O)N(C)[C@@H](C(C)C)C(=O)O[C@@H]3C)c3nc(-c4c(F)c(F)c(F)c(F)c4F)c(=O)oc3c1C)N2 [Compound 2g] | 0.64 | 186 | 31.5 | 1/7 | most cyctoxic | 
4 | Cc1ccc(C(=O)N[C@@H]2C(=O)N[C@H](C(C)C)C(=O)N3CCC[C@H]3C(=O)N(C)CC(=O)N(C)[C@@H](C(C)C)C(=O)O[C@@H]2C)c2c1Oc1c(c(C(=O)N[C@@H]3C(=O)N[C@H](C(C)C)C(=O)N4CCC[C@H]4C(=O)N(C)CC(=O)N(C)[C@@H](C(C)C)C(=O)O[C@@H]3C)c3nc(-c4c(F)c(F)c(F)c(F)c4F)oc3c1C)N2 [Compound 3c] | 12.5 | 72 | 19 | 0/7 |  | 
5 | Cc1c2oc3c(C)c4oc(-c5c(F)c(F)c(F)c(F)c5F)nc4c(C(=O)N[C@@H]4C(=O)N[C@H](C(C)C)C(=O)N5CCC[C@H]5C(=O)N(C)CC(=O)N(C)[C@@H](C(C)C)C(=O)O[C@@H]4C)c3nc-2c(C(=O)N[C@@H]2C(=O)N[C@H](C(C)C)C(=O)N3CCC[C@H]3C(=O)N(C)CC(=O)N(C)[C@@H](C(C)C)C(=O)O[C@@H]2C)cc1=O [Compound 4c] | 0.63 | 172 | 30 | 1/7 |  | 
6 | CCCCCCc1nc2c(C(=O)N[C@@H]3C(=O)N[C@H](C(C)C)C(=O)N4CCC[C@H]4C(=O)N(C)CC(=O)N(C)[C@@H](C(C)C)C(=O)O[C@@H]3C)c3c(c(C)c2oc1=O)Oc1c(C)ccc(C(=O)N[C@@H]2C(=O)N[C@H](C(C)C)C(=O)N4CCC[C@H]4C(=O)N(C)CC(=O)N(C)[C@@H](C(C)C)C(=O)O[C@@H]2C)c1N3 [Compound 2h] | 2.08 | 127 | 25 | 0/7 |  | 
7 | Cc1ccc(C(=O)N[C@@H]2C(=O)N[C@H](C(C)C)C(=O)N3CCC[C@H]3C(=O)N(C)CC(=O)N(C)[C@@H](C(C)C)C(=O)O[C@@H]2C)c2c1Oc1c(c(C(=O)N[C@@H]3C(=O)N[C@H](C(C)C)C(=O)N4CCC[C@H]4C(=O)N(C)CC(=O)N(C)[C@@H](C(C)C)C(=O)O[C@@H]3C)c3nc(-c4ccc5ccccc5c4)c(=O)oc3c1C)N2 [Compound 2i, 3-(2-NAPHTHYL)-10,12-DIMETHYL-2H,6H-OXAZINO[3,2-b]PHENOXAZINE-2-ONE 5,7-BIS[CARBONYL-L-THREONYL-D-VALYL-L-PROLYLSARCOSYL-L-N-METHYLVALINE-(THR EONINE HYDROXYL)] LACTONE] | 1 | 136 | 26 | 0/7 |  | 
8 | Cc1c2oc3c(C)ccc(C(=O)N[C@@H]4C(=O)N[C@H](C(C)C)C(=O)N5CCC[C@H]5C(=O)N(C)CC(=O)N(C)[C@@H](C(C)C)C(=O)O[C@@H]4C)c3nc-2c(C(=O)N[C@@H]2C(=O)N[C@H](C(C)C)C(=O)N3CCC[C@H]3C(=O)N(C)CC(=O)N(C)[C@@H](C(C)C)C(=O)O[C@@H]2C)cc1=O [2-deamino AMD] |  |  |  |  |  | binds to DNA strongly by intercalation
9 | Cc1ccc(C(=O)N[C@@H]2C(=O)N[C@H](C(C)C)C(=O)N3CCC[C@H]3C(=O)N(C)CC(=O)N(C)[C@@H](C(C)C)C(=O)O[C@@H]2C)c2c1Oc1c(c(C(=O)N[C@@H]3C(=O)N[C@H](C(C)C)C(=O)N4CCC[C@H]4C(=O)N(C)CC(=O)N(C)[C@@H](C(C)C)C(=O)O[C@@H]3C)c3nc(-c4ccccc4Cl)c(=O)oc3c1C)N2 [Compound 2c] | 1.8 | 172 | 30 | 1/7 |  | 
10 | Cc1ccc(C(=O)N[C@@H]2C(=O)N[C@H](C(C)C)C(=O)N3CCC[C@H]3C(=O)N(C)CC(=O)N(C)[C@@H](C(C)C)C(=O)O[C@@H]2C)c2c1Oc1c(c(C(=O)N[C@@H]3C(=O)N[C@H](C(C)C)C(=O)N4CCC[C@H]4C(=O)N(C)CC(=O)N(C)[C@@H](C(C)C)C(=O)O[C@@H]3C)c3nc(-c4ccc(Cl)cc4Cl)c(=O)oc3c1C)N2 [Compound 2f] | 3.2 | 155 | 28 | 0/7 |  | 
11 | Cc1ccc(C(=O)N[C@@H]2C(=O)N[C@H](C(C)C)C(=O)N3CCC[C@H]3C(=O)N(C)CC(=O)N(C)[C@@H](C(C)C)C(=O)O[C@@H]2C)c2c1Oc1c(c(C(=O)N[C@@H]3C(=O)N[C@H](C(C)C)C(=O)N4CCC[C@H]4C(=O)N(C)CC(=O)N(C)[C@@H](C(C)C)C(=O)O[C@@H]3C)c3nc(-c4cccc(Cl)c4)c(=O)oc3c1C)N2 [Compound 2d] | 1.6 | 164 | 29 | 0/7 |  | 
